Laboratory results reported in ChEMBL document CHEMBL4396970, “Benzothiazole-based compounds as potent endothelial lipase inhibitors” (Bioorg Med Chem Lett, 2019).
Active and inactive are the calls of the source. No cut-off for these calls is given here.

Experiments:
Endothelial lipase [1] = target: T1, Endothelial lipase (Homo sapiens, UniProt Q9Y5X9); experiment: Inhibition of endothelial lipase in human serum; type: cell-free
T1 sequence (Q9Y5X9 whole entry): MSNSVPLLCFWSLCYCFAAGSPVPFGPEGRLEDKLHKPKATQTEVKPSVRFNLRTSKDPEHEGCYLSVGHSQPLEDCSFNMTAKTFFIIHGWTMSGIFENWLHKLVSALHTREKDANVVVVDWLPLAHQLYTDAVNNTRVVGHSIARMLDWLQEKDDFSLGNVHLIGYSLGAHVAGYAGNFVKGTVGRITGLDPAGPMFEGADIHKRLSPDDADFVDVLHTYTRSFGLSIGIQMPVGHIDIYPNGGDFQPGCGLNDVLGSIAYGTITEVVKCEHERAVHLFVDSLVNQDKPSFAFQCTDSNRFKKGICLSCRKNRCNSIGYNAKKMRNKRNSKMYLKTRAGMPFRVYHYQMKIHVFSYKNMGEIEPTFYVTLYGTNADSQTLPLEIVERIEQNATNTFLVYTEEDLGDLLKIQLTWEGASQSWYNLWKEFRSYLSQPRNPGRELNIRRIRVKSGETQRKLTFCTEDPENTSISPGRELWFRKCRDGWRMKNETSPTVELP

[2] = target: T2, Hepatic triacylglycerol lipase (Homo sapiens, UniProt P11150); experiment: Inhibition of hepatic lipase (unknown origin)
T2 sequence (P11150 whole entry): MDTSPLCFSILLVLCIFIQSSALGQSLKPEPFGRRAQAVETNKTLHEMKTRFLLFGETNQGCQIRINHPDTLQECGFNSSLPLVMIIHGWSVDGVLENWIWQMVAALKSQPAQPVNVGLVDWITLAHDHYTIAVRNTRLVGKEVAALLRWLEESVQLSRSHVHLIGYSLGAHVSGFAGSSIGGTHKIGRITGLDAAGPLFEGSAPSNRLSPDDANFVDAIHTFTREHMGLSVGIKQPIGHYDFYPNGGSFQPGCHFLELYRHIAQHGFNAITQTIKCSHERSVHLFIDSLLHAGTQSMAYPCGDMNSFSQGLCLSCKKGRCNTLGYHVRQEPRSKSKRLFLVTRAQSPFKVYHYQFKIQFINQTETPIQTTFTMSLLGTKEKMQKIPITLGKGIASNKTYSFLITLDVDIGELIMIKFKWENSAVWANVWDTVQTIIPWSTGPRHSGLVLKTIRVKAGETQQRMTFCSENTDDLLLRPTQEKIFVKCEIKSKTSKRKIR

Endothelial lipase [3] = target: T1, Endothelial lipase; experiment: Inhibition of endothelial lipase (unknown origin)
Cytochrome P450 2C9 = Cytochrome P450 2C9 (Homo sapiens, UniProt P11712); experiment: Inhibition of CYP2C9 (unknown origin); type: ADME
Cytochrome P450 2C19 = Cytochrome P450 2C19 (Homo sapiens, UniProt P33261); experiment: Inhibition of CYP2C19 (unknown origin); type: ADME
Cytochrome P450 1A2 = target: T3, Cytochrome P450 1A2 (Homo sapiens, UniProt P05177); experiment: Inhibition of CYP1A2 (unknown origin); type: ADME
T3 sequence (P05177 whole entry): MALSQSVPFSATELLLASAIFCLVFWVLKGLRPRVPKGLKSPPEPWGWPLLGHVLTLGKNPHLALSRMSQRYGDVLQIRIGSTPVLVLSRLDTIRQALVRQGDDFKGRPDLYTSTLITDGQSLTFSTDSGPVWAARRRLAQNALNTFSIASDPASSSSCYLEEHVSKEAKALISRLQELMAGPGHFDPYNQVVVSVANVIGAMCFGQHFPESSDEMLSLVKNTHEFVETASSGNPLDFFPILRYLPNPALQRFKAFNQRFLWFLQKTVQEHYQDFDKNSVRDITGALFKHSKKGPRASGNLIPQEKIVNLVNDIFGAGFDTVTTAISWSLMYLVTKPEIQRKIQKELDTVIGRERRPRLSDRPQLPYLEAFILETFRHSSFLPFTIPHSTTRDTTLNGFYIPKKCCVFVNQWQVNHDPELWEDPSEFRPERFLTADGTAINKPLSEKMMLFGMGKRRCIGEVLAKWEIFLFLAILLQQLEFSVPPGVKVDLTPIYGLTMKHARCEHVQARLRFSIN

Cytochrome P450 2D6 = Cytochrome P450 2D6 (Homo sapiens, UniProt P10635); experiment: Inhibition of CYP2D6 (unknown origin); type: ADME
Cytochrome P450 3A4 = Cytochrome P450 3A4 (Homo sapiens, UniProt P08684); experiment: Inhibition of CYP3A4 (unknown origin); type: ADME
[4] = Metabolic stability in human liver microsomes assessed as parent compound remaining at 0.5 uM preincubated with compound followed by NADPH addition and measured after 10 mins; type: ADME, Microsome; settings: read-out: Stability
[5] = Metabolic stability in mouse liver microsomes assessed as parent compound remaining at 0.5 uM preincubated with compound followed by NADPH addition and measured after 10 mins; type: ADME, Microsome; settings: read-out: Stability
[6] = Permeability of compound at pH 7.4 by PAMPA; type: ADME; settings: read-out: permeability
[7] = Permeability of compound at pH 5.0 by PAMPA; type: ADME; settings: read-out: permeability
[8] = Permeability across apical to basolateral side in human Caco2 cells; type: ADME, cell-based; settings: Caco-2, read-out: permeability
[9] = Permeability across basolateral to apical side in human Caco2 cells; type: ADME, cell-based; settings: Caco-2, read-out: permeability
Mus musculus [10] = experiment: Antiatherosclerotic in C57BL/6 mouse assessed as change in phospholipid level in plasma at 50 mg/kg, ip qd administrated for 2 days and measured 6 hrs post last dose by FPLC analysis; type: functional, organism-based
[11] = target: T4, Endothelial lipase (Homo sapiens) (UniProt Q9Y5X9); experiment: Reversible inhibition of endothelial lipase (unknown origin) assessed as recovery of enzyme activity measured after 24 hrs by dialysis based assay relative to control; design: scale not given: the % may be the effect or the level left
T4 sequence (whole entry): T1 sequence (Q9Y5X9 whole entry)

[12] = Cmax in BALB/c mouse at 10 mg/kg, po; type: ADME, organism-based; design: dose 10 mg/kg, route oral; settings: in vivo
[13] = Tmax in BALB/c mouse at 10 mg/kg, po; type: ADME, organism-based; settings: in vivo
[14] = AUC (0 to 24 hrs) in BALB/c mouse at 10 mg/kg, po; type: ADME, organism-based; design: time < 24 hr, dose 10 mg/kg, route oral; settings: in vivo
[15] = Half life in BALB/c mouse at 10 mg/kg, po; type: ADME, organism-based; settings: in vivo
[16] = Plasma concentration in BALB/c mouse at 10 mg/kg, po measured at 24 hrs post dose; type: ADME, organism-based
[17] = Cmax in BALB/c mouse at 50 mg/kg, ip; type: ADME, organism-based; design: dose 50 mg/kg, route intraperitoneal; settings: in vivo
[18] = Tmax in BALB/c mouse at 50 mg/kg, ip; type: ADME, organism-based; settings: in vivo
[19] = AUC (0 to 24 hrs) in BALB/c mouse at 50 mg/kg, ip measured up to 24 hrs; type: ADME, organism-based; design: time < 24 hr, dose 50 mg/kg, route intraperitoneal; settings: in vivo
[20] = Half life in BALB/c mouse at 50 mg/kg, ip; type: ADME, organism-based; settings: in vivo
[21] = Plasma concentration in BALB/c mouse at 50 mg/kg, ip measured at 24 hrs post dose; type: ADME, organism-based
Mus musculus [22] = experiment: Antiatherosclerotic in C57BL/6 mouse assessed as increase in HDL-cholesterol level in plasma at 50 mg/kg, ip qd administrated for 2 days and measured 6 hrs post last dose by FPLC analysis; type: functional, organism-based
[23] = Tmin in BALB/c mouse at 50 mg/kg, ip; type: ADME, organism-based; settings: in vivo
[24] = Ratio of Cmin in BALB/c mouse to IC50 for endothelial lipase in human serum; type: ADME; settings: in vivo

Chain of Cytochrome P450 2D6 (P10635 whole entry): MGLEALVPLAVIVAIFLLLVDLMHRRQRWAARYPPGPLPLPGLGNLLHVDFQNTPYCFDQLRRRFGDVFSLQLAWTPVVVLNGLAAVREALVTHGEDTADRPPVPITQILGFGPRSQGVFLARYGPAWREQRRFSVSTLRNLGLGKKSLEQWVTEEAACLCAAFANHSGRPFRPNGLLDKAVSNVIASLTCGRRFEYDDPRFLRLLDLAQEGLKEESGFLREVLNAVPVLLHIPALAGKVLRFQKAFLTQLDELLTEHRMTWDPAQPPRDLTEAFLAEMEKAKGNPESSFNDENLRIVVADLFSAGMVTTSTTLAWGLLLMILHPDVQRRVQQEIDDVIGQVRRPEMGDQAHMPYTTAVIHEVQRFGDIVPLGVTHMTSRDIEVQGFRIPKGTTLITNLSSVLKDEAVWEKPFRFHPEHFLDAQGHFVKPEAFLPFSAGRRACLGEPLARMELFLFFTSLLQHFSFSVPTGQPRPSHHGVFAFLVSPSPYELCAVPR
Chain of Cytochrome P450 3A4 (P08684 whole entry): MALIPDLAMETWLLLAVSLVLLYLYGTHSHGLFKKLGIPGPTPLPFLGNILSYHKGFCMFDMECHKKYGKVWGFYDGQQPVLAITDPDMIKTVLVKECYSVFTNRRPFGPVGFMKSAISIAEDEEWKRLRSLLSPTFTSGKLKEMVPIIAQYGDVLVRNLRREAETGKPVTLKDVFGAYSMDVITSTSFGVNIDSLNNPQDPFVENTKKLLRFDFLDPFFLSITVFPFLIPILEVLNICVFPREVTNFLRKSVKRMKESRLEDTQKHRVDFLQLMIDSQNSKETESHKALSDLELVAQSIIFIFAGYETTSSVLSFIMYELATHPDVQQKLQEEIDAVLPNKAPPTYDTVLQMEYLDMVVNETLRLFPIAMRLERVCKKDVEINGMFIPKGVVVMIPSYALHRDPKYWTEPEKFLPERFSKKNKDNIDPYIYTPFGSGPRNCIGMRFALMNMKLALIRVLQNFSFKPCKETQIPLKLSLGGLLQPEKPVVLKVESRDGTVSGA
Chain of Cytochrome P450 2C9 (P11712 whole entry): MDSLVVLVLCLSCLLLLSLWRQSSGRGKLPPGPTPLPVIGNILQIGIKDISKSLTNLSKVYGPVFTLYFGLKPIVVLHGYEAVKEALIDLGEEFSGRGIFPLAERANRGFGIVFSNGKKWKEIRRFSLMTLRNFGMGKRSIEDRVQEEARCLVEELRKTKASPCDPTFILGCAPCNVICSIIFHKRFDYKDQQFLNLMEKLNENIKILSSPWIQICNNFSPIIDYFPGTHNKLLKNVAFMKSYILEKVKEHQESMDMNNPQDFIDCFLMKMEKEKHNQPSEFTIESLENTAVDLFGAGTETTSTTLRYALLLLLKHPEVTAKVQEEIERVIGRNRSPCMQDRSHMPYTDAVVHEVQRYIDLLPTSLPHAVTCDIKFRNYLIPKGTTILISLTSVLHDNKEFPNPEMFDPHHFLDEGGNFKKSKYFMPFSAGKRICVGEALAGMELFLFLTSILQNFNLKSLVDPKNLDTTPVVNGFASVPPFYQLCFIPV
Chain of Cytochrome P450 2C19 (P33261 whole entry): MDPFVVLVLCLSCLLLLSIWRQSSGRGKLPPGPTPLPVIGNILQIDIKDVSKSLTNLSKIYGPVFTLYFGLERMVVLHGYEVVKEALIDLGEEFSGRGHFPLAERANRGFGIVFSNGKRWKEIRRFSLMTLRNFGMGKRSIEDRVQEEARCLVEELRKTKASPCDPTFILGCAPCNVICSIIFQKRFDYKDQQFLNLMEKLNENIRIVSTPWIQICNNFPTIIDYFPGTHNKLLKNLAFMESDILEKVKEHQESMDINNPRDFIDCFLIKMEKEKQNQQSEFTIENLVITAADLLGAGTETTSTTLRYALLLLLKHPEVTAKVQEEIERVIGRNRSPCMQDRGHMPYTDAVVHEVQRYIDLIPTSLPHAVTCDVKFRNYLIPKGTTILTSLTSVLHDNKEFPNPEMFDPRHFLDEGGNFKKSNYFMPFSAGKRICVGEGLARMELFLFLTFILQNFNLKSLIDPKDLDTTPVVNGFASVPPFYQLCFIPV

SMILES | IC50 (Endothelial lipase [1]) | IC50 [2] | IC50 (Endothelial lipase [3]) | IC50 (Cytochrome P450 2C9) | IC50 (Cytochrome P450 2C19) | IC50 (Cytochrome P450 1A2) | IC50 (Cytochrome P450 2D6) | IC50 (Cytochrome P450 3A4) | remaining at 10 min, 0.5 µM [4] | remaining at 10 min, 0.5 µM [5] | Papp [6] | Papp [7] | Papp A→B [8] | Papp B→A [9] | other results
CN1CCN(C(=O)c2ccc(-c3ccc4nc(C(C#N)C(=O)NCC(=O)NC5CCC5)sc4c3)cc2)CC1 (racemic) | 200 nM | 490 nM | 3100 nM |  |  |  |  |  |  |  |  |  |  |  | 
N#CC(C(=O)NCC(=O)NC1CC1)c1nc2ccc(-c3ccc4c(c3)CNC4=O)cc2s1 (racemic) | 100 nM | 70 nM | 5.3 nM |  |  |  |  |  |  |  |  |  |  |  | 
N#CC(C(=O)NCC(=O)NC1CC1)c1nc2ccc(-c3ccc(F)nc3)cc2s1 (racemic) | 230 nM | 500 nM | 170 nM |  |  |  |  |  |  |  |  |  |  |  | 
N#CC(C(=O)NCC(=O)NC1CC1)c1nc2ccc(-c3ccc(C(=O)N4CCC4)cc3)cc2s1 (racemic) | 170 nM | 170 nM |  |  |  |  |  |  |  |  |  |  |  |  | 
N#CC(C(=O)NCC(=O)NC1CC1)c1nc2ccc(-c3cccc(C(=O)N4CCCCC4)c3)cc2s1 (racemic) | 140 nM | 35 nM |  |  |  |  |  |  |  |  |  |  |  |  | 
CN1CCN(C(=O)c2ccc(-c3ccc4nc(C(C#N)C(=O)NCC(=O)NC5CC5)sc4c3)cc2)CC1 (racemic) | 30 nM | 1800 nM |  | > 18000 nM | > 18000 nM | > 18000 nM | > 18000 nM | > 18000 nM | 78% | 91% | 0.3 ×10⁻⁶ cm/s | 0.2 ×10⁻⁶ cm/s | < 1.5 ×10⁻⁶ cm/s | 3 ×10⁻⁶ cm/s | 
N#CC(C(=O)NCC(=O)NC1CC1)c1nc2ccc(-c3ccccc3)cc2s1 (racemic) | 51 nM | 5.4 nM |  | > 18000 nM | > 18000 nM | > 18000 nM | > 18000 nM | > 18000 nM | 91% | 86% | 84.5 ×10⁻⁶ cm/s | 162 ×10⁻⁶ cm/s | 2 ×10⁻⁶ cm/s | 24.6 ×10⁻⁶ cm/s | Activity (Mus musculus [10]): inactive; Activity [11]: 88%; Cmax [12]: 6.6 µM; Tmax [13]: 0.25 h; AUC(0-t) at 24 h [14]: 18 µM·h; half-life [15]: 8.5 h; concentration at 24 h [16]: 0.14 µM; Cmax [17]: 28 µM; Tmax [18]: 7 h; AUC(0-t) at 24 h [19]: 330 µM·h; half-life [20]: 4.7 h; concentration at 24 h [21]: 1.66 µM; Activity (Mus musculus [22]): inactive; Tmin [23]: 23.8 h; Ratio [24]: > 30
N#CC(C(=O)NCC(=O)NC1COC1)c1nc2ccc(-c3ccc(F)nc3)cc2s1 (racemic) | 50 nM | 190 nM |  | > 18000 nM | > 18000 nM | > 18000 nM | > 18000 nM | > 18000 nM | 87% | 87% | 0.4 ×10⁻⁶ cm/s | 6.5 ×10⁻⁶ cm/s | < 1.5 ×10⁻⁶ cm/s | 34.9 ×10⁻⁶ cm/s | 
CN(C)C(=O)c1ccc(-c2ccc3nc(C(C#N)C(=O)NCC(=O)NC4CC4)sc3c2)cc1F (racemic) | 70 nM | 1100 nM |  |  |  |  |  |  |  |  |  |  |  |  | 
N#CC(C(=O)NCC(=O)NC1CC1)c1nc2ccc(-c3ccc(NC(=O)OCc4ccccc4)cc3)cc2s1 (racemic) | 80 nM | 0.8 nM | 1 nM |  |  |  |  |  |  |  |  |  |  |  | 
N#CC(C(=O)NCC(=O)NC1CC1)c1nc2ccc(-c3ccc4c(c3)C(=O)NC4)cc2s1 (racemic) | 130 nM | 420 nM |  |  |  |  |  |  |  |  |  |  |  |  | 
N#CC(C(=O)NCC(=O)N1CCCC1)c1nc2ccc(-c3ccccc3)cc2s1 (racemic) | 1100 nM | 250 nM | 1300 nM |  |  |  |  |  |  |  |  |  |  |  | 
CN(C)C(=O)c1cccc(-c2ccc3nc(C(C#N)C(=O)NCC(=O)NC4CC4)sc3c2)c1 (racemic) | 30 nM | 720 nM |  | > 18000 nM | > 18000 nM | > 18000 nM | > 18000 nM | > 18000 nM | 76% | 99% | 0.3 ×10⁻⁶ cm/s | 8.4 ×10⁻⁶ cm/s | < 1.5 ×10⁻⁶ cm/s | 7.5 ×10⁻⁶ cm/s | 
N#CC(C(=O)NCC(=O)NC1CC1)c1nc2ccc(-c3ccc(C(=O)N4CCOCC4)cc3)cc2s1 (racemic) | 50 nM | 300 nM |  | > 18000 nM | > 18000 nM | > 18000 nM | > 18000 nM | > 18000 nM | 98% | 100% | 0.4 ×10⁻⁶ cm/s | 10.4 ×10⁻⁶ cm/s | 1.7 ×10⁻⁶ cm/s | 18.4 ×10⁻⁶ cm/s | 
